Measured values: patent US20080279961A1, “TELOMERE TARGETING AGENTS AS STEM CELLS DIRECTED TREATMENTS” (priority 2007, published 2008)
Entries after “also recorded” stand apart in the source; their conditions may differ.

Experiments:
Assay type in all cases: cell-based, human
MCF-7 cells = test: MTT proliferation assay (bulk cells); conditions: MCF-7, 5 day; read-out: IC50 bulk cell / whole cell population by MTT assay
Description: (§1) The growth inhibitory activity of RHPS4 in human bulk tumor cells have been compared, by MTT assay, against RHPS4 activity in tumor cells grown as colonies in the clonogenic assay, also termed the human tumor stem cell assay (HTCA) (FIG. 2A-B). HEK293T human embryonic kidney cells grown in the HTCA, and cord blood cells cultured in methylcellulose were also treated with RHPS4 (FIG. 2C). The MTT assay is a 5 day proliferation test measuring effects on a morphologically heterogeneous, differentiated cell population (bulk cells), whereas the HTCA and methylcellulose assays are longer term (10-15 day) tests in which only a very small fraction of a bulk culture (˜0.1-1%) will grow as colonies. Cells growing anchorage-independently as colonies in a semi-solid matrix are considered to be pluripotent stem cells (Hamburger & Salmon, 1977; Locke et al., 2005; Fiebig et al. 2004). […] Similar observations were made with the breast cancer cell line MCF-7 (shown in FIG. 2B, HTCA IC50=0.04 microM; bulk cell IC50=2 microM).

PC3 cells = test: MTT proliferation assay (bulk cells); conditions: PC3, 5 day; read-out: IC50 growth inhibition of the bulk population by MTT assay
Description: as §1

UXF1138L cells [1] = test: MTT proliferation assay (bulk cells); conditions: 5 day, read-out: IC50 growth inhibition of the bulk population by MTT assay
Description: as §1

gamma-H2AX = gamma-H2AX immunoblotting and immunofluorescence; conditions: UXF1138L cells, 1 μM, Western blot
Description: During phosphorylated H2AX (gamma-H2AX) and hTERT immunofluorescence staining, approximately 75,000 UXF1138L cells/chamber were seeded onto 8 chamber glass slides (Costar) 24 hrs prior to RHPS4 treatment. After exposure to 1 μM RHPS4 for 1, 6, or 24 hours, cells were washed twice with PBS and air dried. Cells were fixed and permeabilized by immersion into ice-cold methanol/acetone (1:1; 3×1 min). Slides were blocked overnight at 4° C. with 5% BSA in PBS and washed with PBS (3×) before incubation (2 hrs) with anti-gamma-H2AX mouse monoclonal antibody (Upstate, Waltham, Mass.; 1:250 in PBS) or hTERT monoclonal antibody (NCL-L-hTERT Novacastra, Newcastle, UK; 1:40) respectively. Control cells were probed with mouse IgG (Santa Cruz Biotechnolog Inc., Santa Cruz, Calif.). Slides were washed 3× with PBS, before incubation with a goat anti-mouse FITC conjugated secondary antibody (Sigma; 1:100, 3 h). Following further PBS washes (3×), slides were incubated with 1:5000 DAPI (2 mg/ml; Sigma), washed 3× in PBS and mounted with Vectashield mounting media. Images were visualized as described above.
During immunoblotting for gamma-H2AX, cells were grown to 50 to 80% confluent in 6-well plates (Falcon) and treated with 1 μM RHPS4 for 1, 6, and 24 hours. […] Histones were dissolved in water and protein concentration was determined using the BioRad protein assay (BioRad Laboratories, Hercules Calif.). […]

UXF1138L cells [2] = test: metaphase spreads; conditions: 1 microM, 24 hrs
Description: To prepare metaphase spreads, cells were grown to 70% confluency and treated with 1 μM RHPS4 or PBS (vehicle control) for 24 hours in a T75 tissue culture flask. Supernatants were then replaced with media containing 10 μg/ml Colcemid (Sigma) and incubated for 90-120 minutes at 37° C. Next, cells were trypsinized and centrifuged at 500×g for 5 minutes; 8 ml 60 mmol/l KCl was added to the pellets and the cell suspension incubated for 20 minutes at 37° C. In a pre-fixation step, 2 ml freshly made fixative (methanol/glacial […] 3:1) was added on top of the hypotonic suspension and mixed carefully by turning the tube. After 10 minutes at RT, the mix was centrifuged at 600×g for 10 min. and the supernatant removed. For fixation, 10 ml fixative were added and the mix is kept at RT for 10 min. and centrifuged as above, the step was repeated 2 more times. Then, 0.5 ml fresh fixative was added to obtain a milky suspension of cells without clumps. Cleaned slides were placed horizontally at a 45° angle and 100 μl of cell solution dropped onto the slide from a distance of about 20 cm. Slides were dried at RT or directly dehydrated through an ethanol series of 70%, 90% and 100%. After dehydration, slides were rinsed in PBS and incubated with 0.1 μg/ml DAPI (4′, 6-diamidino-2-phenylindole)/PBS for 30 minutes at RT. […]

Compound: COS(=O)(=O)[O-].Cc1cc2c3c([n+](C)c4ccc(F)cc4c3c1)-c1cc(F)ccc1N2C [RHPS4, 3,11-difluoro-6,8,13-trimethyl-8H-quino[4,3,2-kl]acridinium methosulfate]
- IC50 (MCF-7 cells): 2000 nM
- IC50 (PC3 cells): 1800 nM
- IC50 (UXF1138L cells [1]): 400 nM
- time at which gamma-H2AX expression was seen (gamma-H2AX): 1 h
- chromosome morphology in metaphase spreads (UXF1138L cells [2]): marked increase in end-to-end joining; also recorded: ring and dicentric chromosomes
